Measurements: article PMC11873939, “Target Identification with Live-Cell Photoaffinity Labeling and Mechanism of Action Elucidation of ARN23765, a Highly Potent CFTR Corrector” (Journal of Medicinal Chemistry, 2025)

Assays:
wt-CFTR = biological target: T1, wt-CFTR (Homo sapiens, UniProt P13569); assay: Live-cell photoaffinity labeling, streptavidin pull-down and CFTR Western blot; format: binding; settings: wt-CFTR CFBE41o- cells, probe 1 μM; for CFTR in streptavidin pull-down (WB) after PAL: 2 h, UV 365 nm
T1 construct: expressed in transfected cells
Method: (§1) Wt-CFTR or F508del-CFTR CFBE41o- cells were plated at 2–2.5 × 10^6 cells/plate in 6 cm diameter dishes. The day after, sodium butyrate (5–2.5 mM) was added for 24 h; next, the medium was exchanged with fresh one supplemented with DMSO (0.25%) (276855, Sigma-Aldrich) or probe (1 μM). For competition experiments, a 25-fold excess of ARN23765 (25 μM) was added 30 min before probe’s addition. For the analysis of “corrected” F508del-CFTR, F508del-CFTR CFBE41o- cells were kept at 27 °C for 24 h before adding the probes. Probes were incubated with cells for 2 h, then the medium was removed, and plates were washed twice with phosphate buffer saline (PBS). Cells were placed on ice and irradiated for 5 min at a wavelength of 365 nm using a 100-W UV-lamp (95–0127–02 model B100-AP, Analytik Jena). Cells were harvested with trypsin (T4299, Sigma-Aldrich), washed with PBS (D8537, Sigma-Aldrich), and pellets were stored at −80 °C until used, centrifuged at 300 × g and washed twice with PBS (D8537, Sigma-Aldrich). Pellets from in-cell photoaffinity labeling with alkyne-probes (PAP_1 and PAP_2) were lysed in PBS plus protease inhibitor cocktail (78429, Thermo Scientific) by sonication. The suspension was centrifuged at 800 × g for 20 min at 4 °C to discard nuclei and cell debris. The total extracted proteins were quantified with the bicinchoninic acid (BCA) protein assay (23225, Thermo Scientific) and subjected to CuAAC before proceeding with pull-down. Pellets from in-cell photoaffinity labeling with desthio-biotinylated (DS-biot) probes (PAP_1 DS-biot, PAP_2 DS-biot, PAP_N1 DS-biot, PAP_N2 DS-biot) were lysed with a modified RIPA buffer [50 mM tris-HCl pH 8, 150 mM NaCl, 0.5% Triton-X100, 0.2% SDS, 1 mM ethylenediaminetetraacetic acid (EDTA)] supplemented with protease inhibitor cocktail and centrifuged at 10.000× g for 10 min. The protein content in the supernatant was quantified by BCA protein assay. Protein lysate (200 μg) was diluted to 800 μL and the Triton-X100 percentage was reduced to 0.2% before proceeding to pull-down.
Copper-catalyzed azide–alkyne cycloaddition (CuAAC) was performed according to a previously described protocol.[62] Briefly, to the protein preparation (250 μL at 1 mg/mL protein concentration) the following reagents were added at the indicated final concentrations: 100 μM 5/6-TAMRA-azide-desthiobiotin (CLK-1110–5, Jena Bioscience), 1.0 mM tris-(2-carbossietil)phosphine (TCEP, C4706, Sigma-Aldrich), 100 μM tris-[(1-benzyl-1H-1,2,3-triazol-4-yl)methyl]amine (TBTA, 678937, Sigma-Aldrich), 1.0 mM CuSO4.5H2O (Sigma), and 0.8% sodium dodecyl sulfate (SDS). TBTA was first dissolved in DMSO at 83.5 mM and then diluted with four volumes of tert-butanol. The reaction was mixed by vortexing and incubated for 1 h at 25 °C. After the reaction time, proteins were precipitated with 5 volumes of cold acetone overnight at −20 °C. Samples were centrifuged for 20 min at 20.000× g, and the pellets were washed with methanol, air-dried, and finally resuspended with 600 μL of 1% SDS. SDS concentration was then diluted to 0.2% with PBS before proceeding to pull-down.
(§2) High capacity streptavidin agarose (20359, Thermo Scientific) (25 μL) was added to PAP-labeled cell extracts for 1 h at room temperature under gentle rotation. The streptavidin beads were collected by centrifugation and washed four times with lysis buffer. Resin-bound proteins were eluted with 45 μL of 5 mM biotin (B4501, Sigma-Aldrich) for 30 min at room temperature and analyzed with Western blot for CFTR expression. Input samples (4 and 8 μg for wt-CFTR and F508del-CFTR CFBE41o-, respectively) were collected immediately before incubation with streptavidin resin. Input and pulled-down samples were analyzed with WB as described in the supplementary methods.

F508del-CFTR [1] = biological target: T2, F508del-CFTR (Homo sapiens, UniProt P13569, DEL508-508); assay: HS-YFP functional assay in CFBE41o- cells stably overexpressing F508del-CFTR; format: cell-based; settings: 24 h treatment; for HS-YFP assay in CFBE41o- cells EC50 / EC50: 3 nM-10 µM range; for HS-YFP assay in CFBE41o- cells Emax: values normalized to DMSO-incubated cells
T2 construct: expressed in transfected cells
Method: These analogues were tested in the functional assay on the human bronchial epithelia-derived cell line, CFBE41o-, which stably overexpresses F508del-CFTR and the halide-sensitive yellow fluorescent protein (HS-YFP).[31] […]
HS-YFP-based assay for CFTR activity
Twenty-four hours after seeding on 96-well plates, CFBE41o- cells stably over-expressing F508del-CFTR and the HS-YFP were treated with test compounds at different concentrations in the 3 nM-10 µM range.1 Cells treated with vehicle alone (DMSO) and with ARN23765, respectively, served as negative and positive controls. The following day, cells were washed with PBS containing (in mM) 137 NaCl, 2.7 KCl, 8.1 Na2HPO4, 1.5 KH2PO4, 1.0 CaCl2, and 0.5 MgCl2. Cells were then incubated for 25 min with […] of PBS plus forskolin (20 µM) and VX-770 (1 µM) to maximally stimulate F508del-CFTR. Cells were then transferred to a microplate reader (FluoStar Galaxy; BMG Labtech, Offenburg, Germany) for CFTR activity determination. The plate reader was equipped with high-quality excitation (HQ500/20X: 500 ± 10 nm) and emission (HQ535/30M: 535 ± 15 nm) filters for YFP (Chroma Technology). Each assay comprised a continuous 14 s fluorescence reading, 2 s before and 12 s after injection of […] of an iodide-containing solution (PBS with Cl- replaced by I-; final I- concentration […]). Data were normalized to the initial background-subtracted fluorescence. To determine I- influx rate, the final 11 s of the data for each well were fitted with an exponential function to extrapolate initial slope (dF/dt). Reproducibility of results was confirmed by performing three independent experiments. […]

F508del-CFTR [2] = biological target: T2, F508del-CFTR; assay: Live-cell photoaffinity labeling, streptavidin pull-down and CFTR Western blot; format: binding; settings: for CFTR in streptavidin pull-down (WB) after PAL: F508del-CFTR CFBE41o- cells, probe 1 μM, 2 h, UV 365 nm
Method: as §1, §2

CFTR = assay: Live-cell photoaffinity labeling in CFTR–/– CFBE41o- cells (control); format: binding, human; settings: probe 1 μM, 2 h

T1 sequence (P13569 whole entry): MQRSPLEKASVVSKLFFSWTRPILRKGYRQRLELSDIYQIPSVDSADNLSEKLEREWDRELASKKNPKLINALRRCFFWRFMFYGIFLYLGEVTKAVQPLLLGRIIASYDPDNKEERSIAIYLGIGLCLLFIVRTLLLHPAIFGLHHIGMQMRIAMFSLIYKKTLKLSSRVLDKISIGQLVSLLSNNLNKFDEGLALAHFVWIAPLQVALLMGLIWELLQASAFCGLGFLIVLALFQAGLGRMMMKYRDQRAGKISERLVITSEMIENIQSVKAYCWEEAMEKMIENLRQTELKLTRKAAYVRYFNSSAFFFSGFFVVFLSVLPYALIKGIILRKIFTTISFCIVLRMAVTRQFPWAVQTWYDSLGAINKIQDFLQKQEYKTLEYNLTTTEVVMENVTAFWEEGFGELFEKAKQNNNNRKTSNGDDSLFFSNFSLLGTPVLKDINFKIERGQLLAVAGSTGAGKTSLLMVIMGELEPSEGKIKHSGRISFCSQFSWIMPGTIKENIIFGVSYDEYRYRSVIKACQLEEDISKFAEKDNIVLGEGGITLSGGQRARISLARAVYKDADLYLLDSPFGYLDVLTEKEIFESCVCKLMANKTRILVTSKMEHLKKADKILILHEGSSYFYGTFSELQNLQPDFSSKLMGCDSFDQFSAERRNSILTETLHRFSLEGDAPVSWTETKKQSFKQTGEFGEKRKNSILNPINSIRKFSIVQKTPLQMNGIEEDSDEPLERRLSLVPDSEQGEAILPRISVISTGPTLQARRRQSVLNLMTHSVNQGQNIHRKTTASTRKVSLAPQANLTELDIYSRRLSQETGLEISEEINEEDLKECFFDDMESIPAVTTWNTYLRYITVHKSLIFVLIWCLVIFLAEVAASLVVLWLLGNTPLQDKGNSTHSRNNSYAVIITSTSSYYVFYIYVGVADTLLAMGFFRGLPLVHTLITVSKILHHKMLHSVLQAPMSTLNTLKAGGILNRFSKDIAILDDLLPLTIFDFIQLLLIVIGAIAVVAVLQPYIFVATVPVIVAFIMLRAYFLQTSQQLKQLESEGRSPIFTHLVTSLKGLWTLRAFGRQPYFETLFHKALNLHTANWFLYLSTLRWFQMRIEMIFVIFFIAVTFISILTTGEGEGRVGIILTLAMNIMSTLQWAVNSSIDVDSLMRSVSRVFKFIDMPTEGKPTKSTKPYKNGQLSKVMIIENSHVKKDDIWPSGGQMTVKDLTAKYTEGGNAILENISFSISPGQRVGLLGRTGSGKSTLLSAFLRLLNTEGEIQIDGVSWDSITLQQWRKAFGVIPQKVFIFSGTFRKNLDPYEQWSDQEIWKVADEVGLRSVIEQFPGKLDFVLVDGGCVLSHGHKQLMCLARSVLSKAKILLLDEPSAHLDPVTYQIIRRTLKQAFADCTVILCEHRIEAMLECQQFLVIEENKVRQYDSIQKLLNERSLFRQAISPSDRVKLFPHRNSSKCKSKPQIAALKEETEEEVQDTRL
T2 sequence (P13569 with tags, fused parts or gaps DEL508-508): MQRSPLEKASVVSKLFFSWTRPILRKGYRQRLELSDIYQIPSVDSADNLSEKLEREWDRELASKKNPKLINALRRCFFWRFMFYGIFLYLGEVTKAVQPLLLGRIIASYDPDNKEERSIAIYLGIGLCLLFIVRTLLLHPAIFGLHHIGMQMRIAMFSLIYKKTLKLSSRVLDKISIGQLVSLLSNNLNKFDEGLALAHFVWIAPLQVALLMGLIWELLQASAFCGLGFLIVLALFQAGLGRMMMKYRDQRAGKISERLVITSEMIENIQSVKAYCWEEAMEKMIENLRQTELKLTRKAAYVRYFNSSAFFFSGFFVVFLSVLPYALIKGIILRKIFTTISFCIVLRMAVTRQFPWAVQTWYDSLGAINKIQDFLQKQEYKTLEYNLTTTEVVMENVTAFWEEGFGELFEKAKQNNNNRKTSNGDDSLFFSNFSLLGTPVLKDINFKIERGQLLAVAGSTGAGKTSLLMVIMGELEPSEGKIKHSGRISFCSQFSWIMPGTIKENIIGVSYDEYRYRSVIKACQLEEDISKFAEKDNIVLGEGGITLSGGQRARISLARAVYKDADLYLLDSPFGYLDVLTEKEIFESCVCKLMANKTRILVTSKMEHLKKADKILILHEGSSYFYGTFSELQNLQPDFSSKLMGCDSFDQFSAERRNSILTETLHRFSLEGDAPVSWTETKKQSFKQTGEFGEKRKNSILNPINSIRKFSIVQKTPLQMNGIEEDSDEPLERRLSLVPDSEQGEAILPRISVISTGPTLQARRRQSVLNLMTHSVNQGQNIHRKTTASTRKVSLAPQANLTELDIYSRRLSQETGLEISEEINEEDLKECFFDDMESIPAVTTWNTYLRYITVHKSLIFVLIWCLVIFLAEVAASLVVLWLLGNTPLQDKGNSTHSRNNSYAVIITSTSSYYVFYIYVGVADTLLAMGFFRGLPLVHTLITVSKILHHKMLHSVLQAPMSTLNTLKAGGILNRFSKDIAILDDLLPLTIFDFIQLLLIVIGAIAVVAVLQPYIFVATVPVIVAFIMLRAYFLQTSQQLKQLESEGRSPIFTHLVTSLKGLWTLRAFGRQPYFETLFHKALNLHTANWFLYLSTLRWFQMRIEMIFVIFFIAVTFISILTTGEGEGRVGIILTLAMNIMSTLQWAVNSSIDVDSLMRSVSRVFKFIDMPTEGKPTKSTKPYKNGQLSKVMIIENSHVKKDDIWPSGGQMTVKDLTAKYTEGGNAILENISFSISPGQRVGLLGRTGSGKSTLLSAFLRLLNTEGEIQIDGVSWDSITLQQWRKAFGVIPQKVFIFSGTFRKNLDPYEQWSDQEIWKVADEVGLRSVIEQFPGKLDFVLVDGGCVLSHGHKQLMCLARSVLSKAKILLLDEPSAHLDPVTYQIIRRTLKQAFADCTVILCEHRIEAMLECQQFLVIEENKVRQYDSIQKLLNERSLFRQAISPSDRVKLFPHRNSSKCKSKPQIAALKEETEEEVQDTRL

| Structure (SMILES) | CFTR in streptavidin pull-down (WB) after PAL (wt-CFTR) | CFTR in streptavidin pull-down (WB) after PAL (F508del-CFTR [2]) | EC50 (F508del-CFTR [1]) [nM] | HS-YFP assay in CFBE41o- cells Emax (F508del-CFTR [1]) | other results |
| --- | --- | --- | --- | --- | --- |
| C[C@H]1NC(=O)N[C@H]1CCCCCC(=O)NCCOCCOCCOCCn1cc(CCC2(CCNC(=O)c3ccc(O[C@H]4CCCc5c(C(F)(F)F)nn(-c6cccc(C(=O)Nc7ccc8c(c7)OC(F)(F)O8)c6)c54)cc3)N=N2)nn1 [PAP_N1 DS-biot, N-(2,2-Difluorobenzo[d][1,3]dioxol-5-yl)-3-((S)-7-(4-((2-(3-(2-(1-(18-((4S,5R)-5-methyl-2-oxoimidazolidin-4-yl)-13-oxo-3,6,9-trioxa-12-azaoctadecyl)-1H-1,2,3-triazol-4-yl)ethyl)-3H-diazirin-3-yl)ethyl)carbamoyl)phenoxy)-3-(trifluoromethyl)-4,5,6,7-tetrahydro-1H-indazol-1-yl)benzamide] | not pulled down | not pulled down |  |  | HS-YFP assay in CFBE41o- cells EC50 (F508del-CFTR [1]): devoid of activity |
| C#Cc1ccc(O[C@H]2CCCc3c(C(F)(F)F)nn(-c4cccc(C(=O)N(C)c5ccc(C6(C(F)(F)F)N=N6)cc5)c4)c32)cc1 [PAP_2, (S)-3-(7-(4-Ethynylphenoxy)-3-(trifluoromethyl)-4,5,6,7-tetrahydro-1H-indazol-1-yl)-N-methyl-N-(4-(3-(trifluoromethyl)-3H-diazirin-3-yl)phenyl)benzamide] |  |  | 385 | 2.1 | CFTR in pull-down (WB) after PAL with alkyne probe and CuAAC DS-biot tagging (wt-CFTR; UV irradiation, CuAAC): barely detect a band corresponding to CFTR |
| C[C@H]1NC(=O)N[C@H]1CCCCCC(=O)NCCOCCOCCOCCn1cc(-c2ccc(O[C@H]3CCCc4c(C(F)(F)F)nn(-c5cccc(C(=O)N(C)c6ccc(C7(C(F)(F)F)N=N7)cc6)c5)c43)cc2)nn1 [PAP_2 DS-biot, N-Methyl-3-((S)-7-(4-(1-(18-((4S,5R)-5-methyl-2-oxoimidazolidin-4-yl)-13-oxo-3,6,9-trioxa-12-azaoctadecyl)-1H-1,2,3-triazol-4-yl)phenoxy)-3-(trifluoromethyl)-4,5,6,7-tetrahydro-1H-indazol-1-yl)-N-(4-(3-(trifluoromethyl)-3H-diazirin-3-yl)phenyl)benzamide] | consistently captured | consistently captured | 480 | 1.4 | CFTR in streptavidin pull-down (WB) after PAL (CFTR): did not detect CFTR; CFTR forms in streptavidin pull-down (WB) after PAL (F508del-CFTR [2]; F508del-CFTR CFBE41o- cells kept at 27 °C for 24 h (low-temperature rescue) before PAL): bound and pulled down both F508del-CFTR immature (band B) and mature (band C) protein |
| C#Cc1ccc(O[C@H]2CCCc3c(C(F)(F)F)nn(-c4cccc(C(=O)N(C)c5ccc6c(c5)OC(F)(F)O6)c4)c32)cc1 [Compound 1, (S)-N-(2,2-Difluorobenzo[d][1,3]dioxol-5-yl)-3-(7-(4-ethynylphenoxy)-3-(trifluoromethyl)-4,5,6,7-tetrahydro-1H-indazol-1-yl)-N-methylbenzamide] |  |  | 3.3 | 3 |  |
| C#CCCC1(CCNC(=O)c2ccc(O[C@H]3CCCc4c(C(F)(F)F)nn(-c5cccc(C(=O)N(C)c6ccc7c(c6)OC(F)(F)O7)c5)c43)cc2)N=N1 [PAP_1, (S)-3-(7-(4-((2-(3-(But-3-yn-1-yl)-3H-diazirin-3-yl)ethyl)carbamoyl)phenoxy)-3-(trifluoromethyl)-4,5,6,7-tetrahydro-1H-indazol-1-yl)-N-(2,2-difluorobenzo[d][1,3]dioxol-5-yl)-N-methylbenzamide] |  |  | < 3 | 2.8 |  |
| CN(C(=O)c1cccc(-n2nc(C(F)(F)F)c3c2[C@@H](Oc2ccc(C(=O)O)cc2)CCC3)c1)c1ccc(C2(C(F)(F)F)N=N2)cc1 [Compound 2, (S)-4-((1-(3-(Methyl(4-(3-(trifluoromethyl)-3H-diazirin-3-yl)phenyl)carbamoyl)phenyl)-3-(trifluoromethyl)-4,5,6,7-tetrahydro-1H-indazol-7-yl)oxy)benzoic Acid] |  |  | 24 | 1.2 | Effect in CFTR rescuing (HS-YFP assay, Figure S2) (F508del-CFTR [1]; vs DMSO): no significant effect |
| C[C@H]1NC(=O)N[C@H]1CCCCCC(=O)NCCOCCOCCOCCn1cc(-c2ccc(O[C@H]3CCCc4c(C(F)(F)F)nn(-c5cccc(C(=O)Nc6ccc(C7(C(F)(F)F)N=N7)cc6)c5)c43)cc2)nn1 [PAP_N2 DS-biot, 3-((S)-7-(4-(1-(18-((4S,5R)-5-Methyl-2-oxoimidazolidin-4-yl)-13-oxo-3,6,9-trioxa-12-azaoctadecyl)-1H-1,2,3-triazol-4-yl)phenoxy)-3-(trifluoromethyl)-4,5,6,7-tetrahydro-1H-indazol-1-yl)-N-(4-(3-(trifluoromethyl)-3H-diazirin-3-yl)phenyl)benzamide] | not pulled down | not pulled down |  |  | HS-YFP assay in CFBE41o- cells EC50 (F508del-CFTR [1]): devoid of activity |
